This is an account of results in patent publication US20180296487A1, “SUSTAINED RELEASE INJECTABLE NEUROSTEROID FORMULATIONS” (MARINUS PHARMACEUTICALS, INC., priority 2017, published 2018).

The conditions of data set [1]: cited from earlier work.
Data set [2] can be described thus: Solubility in water.

Like-named read-outs stand apart in the source and are kept apart here.

For the molecule `CC(=O)[C@H]1CC[C@H]2[C@@H]3CC[C@H]4C[C@H](O)CC[C@]4(C)[C@H]3CC[C@]12C` [Allopregnanolone, 3α,5α-tetrahydroprogesterone], the half-life result in data set [1] (human plasma) is reported as “about 45 minutes”.

For the molecule `CC(=O)[C@H]1CC[C@H]2[C@@H]3CC[C@H]4C[C@](C)(O)CC[C@]4(C)[C@H]3CC[C@]12C` [Ganaxolone, 3α-hydroxy, 3β-methyl-5α-pregnan-20-one], the half-life entry in data set [1] (human plasma following oral administration) is “approximately 20 hours”. In data set [1] (therapeutic blood levels are reached quickly), the Tmax entry is reported as “short”. In data set [2], the solubility in water was under 1 µg/mL.
